Tested on: castrated rat
Experiment: In vivo rat model of androgen and anabolic activity - rat Herschberger assay
Conditions: 3 mg/kg orally, once daily for 4 days, compared with Sham and testosterone propionate (TP) controls
Excerpt: Organ and muscle weight is on Y-axis and the numbers refer to weight in milligrams. *ρ<0.05 compared to vehicle. ^ρ<0.05 compared to TP and sham.
The following is a typical procedure of the in vivo evaluation of the selective androgens of this invention. In particular, this assay looks primarily at the ability of the selective androgens of this invention to increase muscle size in an immature, castrated rat. In addition, androgenic effects are looked at primarily by weighing the prostate and seminal vesicles. Selective compounds will show a greater increase in the levator ani relative to the prostate and seminal vesicles when compared to testosterone treated, castrated animals or to intact animals that have not been treated. Immature Sprague Dawley male rats were obtained Charles River Laboratories (Stoneridge, N.Y.). All animals were maintained in a temperature and humidity controlled room with a 12 hr light: 12 hr dark cycle, with ad lib access to food (TD 291615, Teklad, Madison, Wis.) and water. Rats were anesthetized and orchidectomized (GDX) or sham surgery (SHAM) was performed. […] The prostate, seminal vesicle and levator ani and bulba cavernous (LABC) tissues were removed, weighed and recorded. Body weights were recorded for each animal at baseline and at sacrifice.

Structure (SMILES) | levator ani muscle (LABC) weight
Cc1c(N[C@@H](c2nnc(-c3ccc(F)cc3)o2)C(C)(C)O)ccc(C#N)c1Cl [Example 5, (R)-2-chloro-4-(1-(5-(4-fluorophenyl)-1,3,4-oxadiazol-2-yl)-2-hydroxy-2-methylpropylamino)-3-methylbenzonitrile] | significantly above the non-castrated control (Sham) and testosterone propionate-treated (TP) controls

Molecular target: T1, androgen receptor (Rattus norvegicus, UniProt P15207)
T1 construct: purchased Invitrogen, Madison, Wis
T1 sequence (P15207 651-902 limits assumed): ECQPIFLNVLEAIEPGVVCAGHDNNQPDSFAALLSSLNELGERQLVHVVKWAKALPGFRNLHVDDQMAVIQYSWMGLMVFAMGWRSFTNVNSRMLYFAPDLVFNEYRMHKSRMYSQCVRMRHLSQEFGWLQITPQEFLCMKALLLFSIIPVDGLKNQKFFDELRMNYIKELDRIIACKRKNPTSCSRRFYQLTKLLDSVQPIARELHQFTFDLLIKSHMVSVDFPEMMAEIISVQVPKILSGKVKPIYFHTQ
Experiment: androgen receptor binding assay (fluorescence polarization, Invitrogen AR-Fluormone)
Conditions: not given
Method: The assay was performed as specified by the manufacturer (Invitrogen, Madison, Wis.). Briefly, 1 μl of 10 mM compound was added to 500 μl of AR screening buffer in a 1.5 ml eppendorf tube to make a 2×10^−5M stock. 10-fold serial dilutions of the test compounds were prepared ranging in concentration from 10^−5M to 10^−12M. Each dilution was added in triplicate to a black 384-microtiter plate. The test compounds will be diluted 2-fold in the final reaction. 2×AR-Fluormone™ complex was prepared with 2 nM Flourmone AL Green™ and 30 nM AR. 25 μl of 2× complex was aliquoted to each reaction well, such that the final reaction volume was 50 μl per well. Plate was sealed with a foil cover and incubated in the dark at room temperature for 4 h. Polarization values for each well were measured. The polarization values were plotted against the concentration of the test compound. The concentration of the test compound that results in half-maximum shift equals the IC50 of the test compound. As a control, a competition curve for R1881 (methyltrienolone) was performed for each assay. Curve Fitting was performed using GraphPad Prism® software from GraphPad™ Software Inc. Binding data are reported as a single determination if the experiment was run once only and as the average of experiments if the binding experiment was performed two or more times with that compound.
The binding data shown in table 1 (below) is from the result of a single or multiple determinations based on the same compound. Where multiple data points have been taken, the value reported is the average of the multiple determinations.

Structure (SMILES) | IC50 [µM]
Cc1c(N[C@@H](c2nnc(-c3ccc(C#N)cc3)o2)C(C)(C)O)ccc(C#N)c1C(F)(F)F [Example 3, (R)-4-(1-(5-(4-cyanophenyl)-1,3,4-oxadiazol-2-yl)-2-hydroxy-2-methylpropylamino)-3-methyl-2-(trifluoromethyl)benzonitrile] | 0.03
Cc1c(N[C@@H](c2nnc(-c3ccc(C#N)cc3)o2)C(C)(C)O)ccc(C#N)c1Cl [Example 6, (R)-2-chloro-4-(1-(5-(4-cyanophenyl)-1,3,4-oxadiazol-2-yl)-2-hydroxy-2-methylpropylamino)-3-methylbenzonitrile] | 0.004
Cc1c(N[C@@H](c2nnc(-c3ccc(C#N)cc3)o2)[C@H](O)C(F)(F)F)ccc(C#N)c1Cl [Example 7, 2-chloro-4-((1R,2S)-1-(5-(4-cyanophenyl)-1,3,4-oxadiazol-2-yl)-3,3,3-trifluoro-2-hydroxypropylamino)-3-methylbenzonitrile] | 0.29
Cc1c(N[C@@H](c2nnc(-c3ccc(F)cc3)o2)C(C)(C)O)ccc(C#N)c1C(F)(F)F [Example 2, (R)-4-(1-(5-(4-fluorophenyl)-1,3,4-oxadiazol-2-yl)-2-hydroxy-2-methylpropylamino)-3-methyl-2-(trifluoromethyl)benzonitrile] | 0.04
Cc1c(N[C@@H](c2nnc(-c3ccc(F)cc3)o2)C(C)(C)O)ccc(C#N)c1Cl [Example 5, (R)-2-chloro-4-(1-(5-(4-fluorophenyl)-1,3,4-oxadiazol-2-yl)-2-hydroxy-2-methylpropylamino)-3-methylbenzonitrile] | 0.006
CC(C)(O)[C@@H](Nc1ccc(C#N)c(C(F)(F)F)c1)c1nnc(-c2ccc(F)cc2)o1 [Example 1, (R)-4-(1-(5-(4-fluorophenyl)-1,3,4-oxadiazol-2-yl)-2-hydroxy-2-methylpropylamino)-2-(trifluoromethyl)benzonitrile] | > 1
CCCc1c(N[C@@H](c2nnc(-c3ccc(C#N)cc3)o2)[C@H](C)O)ccc(C#N)c1Cl [Example 4, 2-Chloro-4-((1R,2S)-1-(5-(4-cyanophenyl)-1,3,4-oxadiazol-2-yl)-2-hydroxypropylamino)-3-propylbenzonitrile] | 0.0003

From patent US8642632B2, “Selective androgen receptor modulators” (Radius Health, Inc., priority 2010, dated 2014)
